pIC50: −log10 of the molar value.
Each compound was assayed against peripheral (ω3) benzodiazepine (BZ) receptor (Rattus norvegicus, UniProt P16257) (assay: BZω3 (peripheral-type) benzodiazepine receptor binding assay).
`CCCCN(CCCC)C(=O)CNc1nc(-c2ccc(Cl)cc2)nc(C)c1C` [Example 15] was tested, and the pIC50 was 8.41. `COc1ccc(-c2nc(C)c(C)c(NCC(=O)N(C)c3ccccc3)n2)cc1` [Example 26] showed a pIC50 of 9.55. For `Cc1nc(-c2ccc(C(F)(F)F)cc2)nc(NCC(=O)N(C)c2ccccc2)c1C` [Example 27], the pIC50 was 9.96. In the case of `COc1ccc(N(C)C(=O)CNc2nc(-c3ccccc3)nc(C)c2C)cc1` [Example 41], the pIC50 was 8.60. For `CCN(C(=O)CNc1nc(-c2ccc(C(F)(F)F)cc2)nc(C)c1C)c1ccccc1` [Example 49], the pIC50 was 9.64. `CCN(C(=O)CNc1nc(-c2ccccc2)nc(C)c1C)c1ccc(Cl)cc1` [Example 51] gave a pIC50 of 9.49. `CCCCN(C(=O)CNc1nc(-c2ccccc2)nc(C)c1C)c1ccccc1` [Example 57] was tested, and the pIC50 was 8.27. With `Cc1nc(-c2ccc(Cl)cc2)nc(NCC(=O)N2CC(C)OC(C)C2)c1C` (centres unmarked) [Example 68, 4-[2-(4-Chlorophenyl)-5,6-dimethyl-4-pyrimidinylamino]acetyl-2,6-dimethylmorpholine] the pIC50 was 8.66. With `CCCN(CCC)C(=O)C(CO)Nc1nc(-c2ccccc2)nc(C)c1C` (centres unmarked) [Example 69, 3-hydroxy-2-(5,6-dimethyl-2-phenyl-4-pyrimidinylamino)-N,N-dipropylpropanamide] the pIC50 was 8.56. Work on `CCCN(CCC)C(=O)CN(C)c1nc(-c2ccccc2)nc(C)c1C` [Example 70, 2-[methyl-(5,6-dimethyl-2-phenyl-4-pyrimidinyl)amino]-N,N-dipropylacetamide] yielded a pIC50 of 8.95. `Cc1nc(-c2ccccc2)nc(N(C)CC(=O)N(C)c2ccc(Cl)cc2)c1C` [Example 76] gave a pIC50 of 8.88. For `CCCN(CCC)C(=O)C1Cc2ccccc2N1c1nc(-c2ccccc2)nc(C)c1C` (centres unmarked) [Example 81, 2,3-dihydro-1-(5,6-dimethyl-2-phenyl-4-pyrimidinyl)-N,N-dipropyl-1H-indole-2-carboxamide], the pIC50 was 8.16. Compound `CCc1c(C)nc(-c2ccccc2)nc1NCC(=O)N(C)c1ccc(Cl)cc1` [Example 84, N-(4-chlorophenyl)-2-(5-ethyl-6-methyl-2-phenyl-4-pyrimidinylamino)-N-methylacetamide] has a pIC50 of 8.69. Compound `CCCN(CCC)C(=O)CNc1nc(-c2ccccc2)nc(CC)c1C` [Example 85, 2-(6-ethyl-5-methyl-2-phenyl-4-pyrimidinylamino)-N,N-dipropylacetamide] has a pIC50 of 9.74. For `CCCN(CCC)C(=O)CNc1nc(-c2ccccc2)nc(-c2ccccc2)c1C` [Example 97], the pIC50 was 8.64. Compound `CCCN(CCC)C(=O)CNc1nc(-c2ccccc2)nc2c1CCCC2` [Example 102, 2-(5,6,7,8-tetrahydro-2-phenyl-4-quinazolinylamino)-N,N-dipropylacetamide] has a pIC50 of 8.48. `CCCN(CCC)C(=O)CNc1nc(-c2ccc(F)cc2)nc2c1CCCC2` [Example 103] gave a pIC50 of 8.54. With `CCCN(CCC)C(=O)CNc1nc(-c2ccc(Cl)cc2)nc2c1CCCC2` [Example 104] the pIC50 was 8.46. Compound `CCCCN(CCCC)C(=O)CNc1nc(-c2ccccc2)nc2c1CCCC2` [Example 105] has a pIC50 of 8.38. `CCCCN(CCCC)C(=O)CNc1nc(-c2ccc(F)cc2)nc2c1CCCC2` [Example 106] was tested, and the pIC50 was 8.37. `CCCCN(CCCC)C(=O)CNc1nc(-c2ccc(Cl)cc2)nc2c1CCCC2` [Example 107] showed a pIC50 of 8.37. For `CN(C(=O)CNc1nc(-c2ccccc2)nc2c1CCCC2)c1ccc(Cl)cc1` [Example 108], the pIC50 was 8.92. `CN(C(=O)CNc1nc(-c2ccc(Cl)cc2)nc2c1CCCC2)c1ccc(Cl)cc1` [Example 109] was tested, and the pIC50 was 8.68. With `CCCN(CCC)C(=O)CN(C)c1nc(-c2ccccc2)nc2c1CCCC2` [Example 110] the pIC50 was 8.70. Work on `CN(CC(=O)N(C)c1ccc(Cl)cc1)c1nc(-c2ccccc2)nc2c1CCCC2` [Example 111] yielded a pIC50 of 8.69. `CCCN(CCC)C(=O)C(CO)Nc1nc(-c2ccccc2)nc2c1CCCC2` (centres unmarked) [Example 118, 3-hydroxy-2-(5,6,7,8-tetrahydro-2-phenyl-4-quinazolinylamino)-N,N-dipropylpropanamide] showed a pIC50 of 8.97. Compound `CCCN(CCC)C(=O)C1CCCN1c1nc(-c2ccccc2)nc2c1CCCC2` (centres unmarked) [Example 119, 1-(5,6,7,8-Tetrahydro-2-phenyl-4-quinazolinyl)-N,N-dipropyl-2-pyrrolidinecarboxamide] has a pIC50 of 8.84. `CN(C(=O)C1CCCN1c1nc(-c2ccccc2)nc2c1CCCC2)c1ccc(Cl)cc1` (centres unmarked) [Example 120, N-(4-Chlorophenyl)-1-(5,6,7,8-tetrahydro-2-phenyl-4-quinazolinyl)-N-methyl-2-pyrrolidinecarboxamide 1/4 hydrate] was tested, and the pIC50 was 8.79. For `CN(C(=O)CNc1nc(-c2ccccc2)ncc1N)c1ccccc1` [Example 124, 2-(5-amino-2-phenyl-4-pyrimidinylamino)-N-methyl-N-phenylacetamide], the pIC50 was 8.27. `CCCN(CCC)C(=O)CNc1nc(-c2ccccc2)ncc1CO` [Example 127, 2-(5-hydroxymethyl-2-phenyl-4-pyrimidinylamino)-N,N-dipropylacetamide] was tested, and the pIC50 was 8.36. Compound `CCCN(CCC)C(=O)COc1nc(-c2ccc(F)cc2)nc2c1CCCC2` [Example 128, 2-[2-(4-fluorophenyl)-5,6,7,8-tetrahydro-4-quinazolinyloxy]-N,N-dipropylacetamide] has a pIC50 of 9.10. `CCCN(CCC)C(=O)COc1nc(-c2cccc(Cl)c2)nc2c1CCCC2` [Example 130] was tested, and the pIC50 was 8.88. With `CCCN(CCC)C(=O)COc1nc(-c2ccc(Cl)cc2)nc2c1CCCC2` [Example 131] the pIC50 was 9.05. Work on `CCCCN(CCCC)C(=O)COc1nc(-c2ccccc2)nc2c1CCCC2` [Example 133] yielded a pIC50 of 8.66. Work on `CCCCN(CCCC)C(=O)COc1nc(-c2ccc(F)cc2)nc2c1CCCC2` [Example 134] yielded a pIC50 of 8.51. With `CCCCN(CCCC)C(=O)COc1nc(-c2ccc(Cl)cc2)nc2c1CCCC2` [Example 135] the pIC50 was 8.50. `CCCN(CCC)C(=O)COc1nc(-c2ccc(Cl)cc2)nc(C)c1C` [Example 137] gave a pIC50 of 9.03. In the case of `CCCN(CCC)C(=O)COc1nc(-c2ccc(F)cc2)nc(C)c1C` [Example 138], the pIC50 was 9.28. `CCCN(CCC)C(=O)COc1nc(-c2ccc(C(F)(F)F)cc2)nc(C)c1C` [Example 141] was tested, and the pIC50 was 9.96. `CCCN(CCC)C(=O)COc1nc(-c2ccc([N+](=O)[O-])cc2)nc(C)c1C` [Example 142] gave a pIC50 of 10.10. For `Cc1nc(-c2ccccc2)nc(OCC(=O)N(C)c2ccccc2)c1C` [Example 143], the pIC50 was 8.85. In the case of `Cc1nc(-c2cccc(Cl)c2)nc(OCC(=O)N(C)c2ccccc2)c1C` [Example 145], the pIC50 was 8.80. With `Cc1nc(-c2ccc(C(F)(F)F)cc2)nc(OCC(=O)N(C)c2ccccc2)c1C` [Example 147] the pIC50 was 9.28. With `Cc1nc(-c2ccccc2)nc(OCC(=O)N(C)c2ccc(Cl)cc2)c1C` [Example 149] the pIC50 was 8.94. `CCN(C(=O)COc1nc(-c2ccccc2)nc(C)c1C)c1ccccc1` [Example 151] showed a pIC50 of 9.24. Compound `CCN(C(=O)COc1nc(-c2ccc(C(F)(F)F)cc2)nc(C)c1C)c1ccccc1` [Example 155] has a pIC50 of 9.12. In the case of `CCc1c(C)nc(-c2ccccc2)nc1OCC(=O)N(C)c1ccc(Cl)cc1` [Example 156], the pIC50 was 8.30. Compound `CCCN(CCC)C(=O)COc1cc(-c2ccccc2)nc(-c2ccccc2)n1` [Example 158] has a pIC50 of 8.39. `CCCN(CCC)C(=O)COc1nc(-c2ccccc2)nc(-c2ccccc2)c1C` [Example 159] was tested, and the pIC50 was 8.70. For `CCCN(CCC)C(=O)COc1cc(C(F)(F)F)nc(-c2ccccc2)n1` [Example 160], the pIC50 was 8.37.

Source: patent US5972946A, “Acetamide derivative, process for preparing the same, and a pharmaceutical composition containing the same” (Dainippon Pharmaceutical Co., Ltd., priority 1995, dated 1999)
